Positions of bridges follow the written chain, without caps; N, C: chain ends. Non-standard residues stand in square brackets, D forms with d. Residues, ends and D or L forms follow the SMILES beside them. Ala(imidazol-2-yl) = N[C@@H](Cc1ncc[nH]1)C(=O)O A value given as a limit tells only on which side of the number the result lay.

This assay deals with T1, IL17-RE-IL-17C (Homo sapiens, UniProt Q8NFR9+Q9P0M4).
T1 sequence (Q9P0M4 whole entry): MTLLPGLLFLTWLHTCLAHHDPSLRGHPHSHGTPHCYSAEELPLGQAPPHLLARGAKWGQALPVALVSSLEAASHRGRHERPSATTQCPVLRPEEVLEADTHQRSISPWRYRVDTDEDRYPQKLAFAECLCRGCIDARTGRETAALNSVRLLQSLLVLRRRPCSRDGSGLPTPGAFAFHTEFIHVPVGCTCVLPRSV
T1 sequence (Q8NFR9 whole entry): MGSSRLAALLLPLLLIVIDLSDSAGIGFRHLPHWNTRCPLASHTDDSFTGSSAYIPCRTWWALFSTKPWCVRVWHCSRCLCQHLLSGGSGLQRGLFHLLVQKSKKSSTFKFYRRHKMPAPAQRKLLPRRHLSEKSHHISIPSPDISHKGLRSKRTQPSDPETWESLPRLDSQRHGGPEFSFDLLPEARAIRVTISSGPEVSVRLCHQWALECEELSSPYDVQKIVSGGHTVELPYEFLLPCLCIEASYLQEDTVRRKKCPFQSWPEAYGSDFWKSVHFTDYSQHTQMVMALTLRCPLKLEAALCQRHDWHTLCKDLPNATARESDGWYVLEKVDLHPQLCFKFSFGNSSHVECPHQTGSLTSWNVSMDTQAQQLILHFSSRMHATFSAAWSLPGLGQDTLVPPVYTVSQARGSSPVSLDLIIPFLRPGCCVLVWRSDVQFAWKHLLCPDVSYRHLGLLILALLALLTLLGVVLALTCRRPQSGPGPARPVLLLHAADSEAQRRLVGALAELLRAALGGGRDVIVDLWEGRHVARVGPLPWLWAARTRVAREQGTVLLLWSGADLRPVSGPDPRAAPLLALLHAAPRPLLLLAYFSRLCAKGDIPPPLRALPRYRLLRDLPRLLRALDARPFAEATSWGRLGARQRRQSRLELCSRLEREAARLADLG
As to the kind of experiment: Inhibition of IL-17C/IL-17RE interaction (unknown origin) incubated for 1.5 hrs by ELISA method. The assay is classed as protein-complex assay. (In general: In an ELISA, binding on a coated surface is turned into a signal by an enzyme label.)
In the case of `CC[C@H](C)[C@@H]1NC(=O)[C@H](CCCNC(=N)N)NC(=O)[C@H](Cc2ccc(O)cc2)NC(=O)[C@H](Cc2ccc(O)cc2)NC(=O)[C@H](Cc2c[nH]cn2)NC(=O)[C@H](Cc2c[nH]cn2)NC(=O)[C@H](Cc2ccc(O)cc2)NC(=O)CSC[C@@H](C(=O)NCC(N)=O)NC(=O)CNC(=O)[C@H](CC(C)C)NC(=O)[C@H](CCC(=O)O)NC(=O)CNC(=O)[C@H](Cc2c[nH]cn2)NC(=O)[C@H](CC(C)C)NC1=O` ({CH2CO}-YHHYYRILHGELGCG-NH2; thioether N-14), the IC50 (commonly the point on the concentration scale where inhibition reaches its midpoint) was > 30000 nM.
The same measure for `CC(C)C[C@@H]1NC(=O)[C@H](CC(N)=O)NC(=O)CNC(=O)[C@H](Cc2ccc(O)cc2)NC(=O)[C@H](CC(C)C)NC(=O)[C@H](CC(C)C)NC(=O)[C@H](CCCNC(=N)N)NC(=O)[C@H](Cc2ccc(O)cc2)NC(=O)[C@H](Cc2ccc(O)cc2)NC(=O)[C@H](CC(C)C)NC(=O)[C@H](Cc2c[nH]cn2)NC(=O)[C@H](Cc2ccc(O)cc2)NC(=O)CSC[C@@H](C(=O)NCC(N)=O)NC(=O)CNC1=O` ({CH2CO}-YHLYYRLLYGNLGCG-NH2; thioether N-14): 48.8 nM; for `CC[C@H](C)[C@@H]1NC(=O)[C@H](CCCNC(=N)N)NC(=O)[C@H](Cc2ccc(O)cc2)NC(=O)[C@H](Cc2ccc(O)cc2)NC(=O)[C@H](Cc2c[nH]cn2)NC(=O)[C@H](Cc2c[nH]cn2)NC(=O)[C@H](Cc2ccc(O)cc2)NC(=O)CSC[C@@H](C(=O)NCC(N)=O)NC(=O)CNC(=O)[C@H](CC(C)C)NC(=O)[C@H](CCC(=O)O)NC(=O)CNC(=O)[C@H](Cc2ccc(O)cc2)NC(=O)[C@@H]2CCCN2C1=O` ({CH2CO}-YHHYYRIPYGELGCG-NH2; thioether N-14): > 30000 nM.
Then `CC[C@H](C)[C@@H]1NC(=O)[C@H](CCCNC(=N)N)NC(=O)[C@H](Cc2ccc(O)cc2)NC(=O)[C@H](Cc2ccc(O)cc2)NC(=O)[C@H](Cc2c[nH]cn2)NC(=O)[C@H](Cc2c[nH]cn2)NC(=O)[C@H](Cc2ccc(O)cc2)NC(=O)CSC[C@@H](C(=O)NCC(N)=O)NC(=O)CNC(=O)[C@H](CC(C)C)NC(=O)[C@H](CCC(=O)O)NC(=O)[C@H](C)NC(=O)[C@H](Cc2ccc(O)cc2)NC(=O)[C@H](CC(C)C)NC1=O` ({CH2CO}-YHHYYRILYAELGCG-NH2; thioether N-14), with 1360 nM; and `CC[C@H](C)[C@@H]1NC(=O)[C@H](C)NC(=O)[C@H](Cc2ccc(O)cc2)NC(=O)[C@H](Cc2ccc(O)cc2)NC(=O)[C@H](Cc2c[nH]cn2)NC(=O)[C@H](Cc2c[nH]cn2)NC(=O)[C@H](Cc2ccc(O)cc2)NC(=O)CSC[C@@H](C(=O)NCC(N)=O)NC(=O)CNC(=O)[C@H](CC(C)C)NC(=O)[C@H](CCC(=O)O)NC(=O)CNC(=O)[C@H](Cc2ccc(O)cc2)NC(=O)[C@H](CC(C)C)NC1=O` ({CH2CO}-YHHYYAILYGELGCG-NH2; thioether N-14), with 400 nM; and `CC(C)C[C@@H]1NC(=O)[C@H](CO)NC(=O)CNC(=O)[C@H](Cc2ccc(O)cc2)NC(=O)[C@H](CC(C)C)NC(=O)[C@H](CO)NC(=O)[C@H](Cc2ccc(O)cc2)NC(=O)[C@H](Cc2ccc(O)cc2)NC(=O)[C@H](Cc2ccc(O)cc2)NC(=O)[C@H](C(C)C)NC(=O)[C@H](Cc2c[nH]cn2)NC(=O)[C@H](Cc2ccc(O)cc2)NC(=O)CSC[C@@H](C(=O)NCC(N)=O)NC(=O)CNC1=O` ({CH2CO}-YHVYYYSLYGSLGCG-NH2; thioether N-14), with 3.3 nM.
The same measure for `CC(C)C[C@@H]1NC(=O)[C@H](C)NC(=O)[C@H](Cc2ccc(O)cc2)NC(=O)[C@H](Cc2ccc(O)cc2)NC(=O)[C@H](Cc2ccc(O)cc2)NC(=O)[C@H](CC(C)C)NC(=O)[C@H](Cc2ncc[nH]2)NC(=O)[C@H](Cc2ccc(O)cc2)NC(=O)CSC[C@@H](C(=O)NCC(N)=O)NC(=O)CNC(=O)[C@H](CC(C)C)NC(=O)[C@H](CC(N)=O)NC(=O)CNC(=O)[C@H](Cc2ccc(O)cc2)NC1=O` ({CH2CO}-Y[Ala(imidazol-2-yl)]LYYYALYGNLGCG-NH2; thioether N-14): 11.8 nM; for `CC(C)C[C@@H]1NC(=O)[C@H](CC(N)=O)NC(=O)CNC(=O)[C@H](Cc2ccc(O)cc2)NC(=O)[C@H](CC(C)C)NC(=O)[C@H](CO)NC(=O)[C@H](C(C)C)NC(=O)[C@H](Cc2ccc(O)cc2)NC(=O)[C@H](Cc2ccc(O)cc2)NC(=O)[C@H](CC(C)C)NC(=O)[C@H](Cc2c[nH]cn2)NC(=O)[C@H](Cc2ccc(O)cc2)NC(=O)CSC[C@@H](C(=O)NCC(N)=O)NC(=O)CNC1=O` ({CH2CO}-YHLYYVSLYGNLGCG-NH2; thioether N-14): 6.4 nM.
`CC[C@H](C)[C@@H]1NC(=O)[C@H](Cc2c[nH]cn2)NC(=O)[C@H](Cc2ccc(O)cc2)NC(=O)CSC[C@@H](C(=O)NCC(N)=O)NC(=O)CNC(=O)[C@H](CC(C)C)NC(=O)[C@H](CC(N)=O)NC(=O)CNC(=O)[C@H](Cc2ccc(O)cc2)NC(=O)[C@H](CC(C)C)NC(=O)[C@H]([C@@H](C)CC)NC(=O)[C@H](CCCNC(=N)N)NC(=O)[C@H](Cc2ccc(O)cc2)NC(=O)[C@H](Cc2ccc(O)cc2)NC1=O` ({CH2CO}-YHIYYRILYGNLGCG-NH2; thioether N-14): the IC50 worked out at 4.5 nM.
As to `CC[C@H](C)[C@@H]1NC(=O)[C@H](CC(C)C)NC(=O)[C@H](C)NC(=O)[C@H](CC(C)C)NC(=O)[C@H](Cc2c[nH]c3ccccc23)NC(=O)[C@H](CC(N)=O)NC(=O)[C@H](CC(=O)O)NC(=O)[C@H](Cc2ccccc2)NC(=O)[C@H](Cc2c[nH]cn2)NC(=O)[C@H](Cc2ccc(O)cc2)NC(=O)CSC[C@@H](C(=O)NCC(N)=O)NC(=O)[C@H](CC(C)C)NC1=O` ({CH2CO}-YHFDNWLALILCG-NH2; thioether N-12), the IC50 was > 30000 nM.
`CC[C@H](C)[C@@H]1NC(=O)[C@H](CCCNC(=N)N)NC(=O)[C@H](Cc2ccc(O)cc2)NC(=O)[C@H](Cc2ccc(O)cc2)NC(=O)[C@H](Cc2c[nH]cn2)NC(=O)[C@H](Cc2c[nH]cn2)NC(=O)[C@H](Cc2ccc(O)cc2)NC(=O)CSC[C@@H](C(=O)NCC(N)=O)NC(=O)CNC(=O)[C@H](CC(C)C)NC(=O)[C@H](CCC(=O)O)NC(=O)CNC(=O)[C@H](Cc2ccccc2)NC(=O)[C@H](CC(C)C)NC1=O` ({CH2CO}-YHHYYRILFGELGCG-NH2; thioether N-14) yielded a half-maximal inhibitory concentration (IC50) of 1230 nM.
Then `CC[C@H](C)[C@@H]1NC(=O)[C@H](CCCNC(=N)N)NC(=O)[C@H](Cc2ccc(O)cc2)NC(=O)[C@H](Cc2ccc(O)cc2)NC(=O)[C@H](Cc2c[nH]cn2)NC(=O)[C@H](Cc2c[nH]cn2)NC(=O)[C@H](Cc2ccc(O)cc2)NC(=O)CSC[C@@H](C(=O)NCC(N)=O)NC(=O)[C@H](C)NC(=O)[C@H](CC(C)C)NC(=O)[C@H](CCC(=O)O)NC(=O)CNC(=O)[C@H](Cc2ccc(O)cc2)NC(=O)[C@H](CC(C)C)NC1=O` ({CH2CO}-YHHYYRILYGELACG-NH2; thioether N-14), with 865 nM.
`CC[C@H](C)[C@@H]1NC(=O)[C@@H]2CCCN2C(=O)[C@H](CCCNC(=N)N)NC(=O)[C@H](Cc2c[nH]c3ccccc23)NC(=O)[C@H](Cc2ccccc2)NC(=O)[C@H](CC(N)=O)NC(=O)[C@@H]2CCCN2C(=O)[C@H](Cc2ccccc2)NC(=O)[C@H](Cc2c[nH]c3ccccc23)NC(=O)[C@H](Cc2ccc(O)cc2)NC(=O)CSC[C@@H](C(=O)NCC(N)=O)NC(=O)[C@H](CC(N)=O)NC1=O` ({CH2CO}-YWFPNFWRPINCG-NH2; thioether N-12): the IC50 was > 30000 nM.
